Laboratory results as given in patent US20130254944A1, “Herbicide Tolerant Soybeans and Methods of Use” (PIONEER HI BRED INTERNATIONAL INC, priority 2012, published 2013).

Columns and labels:
Format in all cases: in vivo
[1] = test system: soybean having the Als2 mutation; assay: Greenhouse postemergence test of ALS-inhibiting herbicides, soybean with Als2 mutation; details: for Avg response (% phytotoxicity), Trait Als2: Table 2
Procedure: (§1) Soybean lines having wild type als1 & 2 genes, the Als1 mutation, the Als2 mutation, or both the Als1 and Als2 mutations were evaluated for their response to various herbicides. Two seeds from each line were planted into 4-inch pots containing Redi-Earth potting mix (Sun Gro Horticulture Canada Ltd. 52130 RR65, Seba Beach, Alberta TOE 2B0), with two replications planted for each treatment. Pots were placed in flats at 15 pots/flat, and the resulting plants were grown in a greenhouse environment supplemented with lighting (16 hr photoperiod) for the duration of the test. Selected herbicides representing the mode of action that inhibits the acetolactate synthase enzyme, also known as the acetohydroxyacid synthase enzyme, were applied postemergence to soybean when soybean plants were at the V2 growth stage, which is the stage at which the first two trifoliolate leaves were expanded.
(§2) Eleven active ingredients representing the five chemical families with herbicidal activity on the acetolactate synthase enzyme were tested. These herbicides can cause a phytotoxic response in wild type soybean plants. The five chemical families tested were sulfonylaminocarbonyltriazolinone (also known as triazolinone), imidazolinone, sulfonylurea, pyrimidinylthiobenzoate, and triazolopyrimidine. Application rates ranged from 0.5 times to eight times the currently labeled application rate for each active ingredient with spray application volume at 30 gallons/acre. The application rates tested were 0.5×, 1×, 2×, 4× and 8× the label rate for each herbicide. Herbicidal active ingredients were applied as formulated materials dispersed in water containing 0.25% nonionic surfactant (Trend® 90).
(§3) The test was evaluated by visually scoring plant phenotype 14 days after the herbicides were applied. Controls consisted of soybean plants of the same variety that received no herbicide treatments for each of all the varieties tested. Soybean response was recorded on a zero to 100 visual scale in which zero is no phytotoxic response and 100 is plant death fourteen days after the herbicides were applied. Soybean response (percent phytotoxicity) to postemergence applications of herbicides inhibiting the acetolactate synthase enzyme test results are shown in Table 1.
(§4) Results in Table 1 were evaluated using the isobole method for analyzing interactions. […] Here the biologically active agents that are being assessed for interaction (synergy) are gene mutations in soybean. The effectiveness of the genes in providing improved tolerance to ALS-inhibiting herbicides was assessed by applying increasing doses of herbicides to each soybean line with its mutation(s).
(§5) An isobole reduces a dose response surface in three dimensional space to a two dimensional plot by fixing a defined response level (e.g., 50% response). The isobole plot is a graph in the Cartesian plane with a straight line connecting the isoeffective rates of the individual components of the combination. This straight line represents expected responses for zero interactive combinations. The isoeffective rate used to create the isobole is often the EC50, the rate estimated to elicit 50% response, but other ECx values can be used. Since the isobole method is based on the potency of the components of the combination, an experimental design testing a range of rates expected to elicit the full range of responses (e.g., 0 to maximum response) is best. (Ferry et al. (2005) 2005 Conference on Applied Statistics in Agriculture Proceedings pp 33-50, Manhattan, Kans., Kansas State Univ.; Green and Streibig (1993) Herbicide Mixtures, pp 117-134 in Herbicide Bioassays, Streibig and Hudsk Eds, CRC, Boca Raton, Fla.).
(§6) Loglogistic dose response curves were fit to percent phytotoxicity response data using log 10 of dose (McCullagh and Nelder (1989) Generalized Linear Models, Chapman & Hall, London). Curves were fit using the logit link with normal errors. […]

[2] = test system: soybean having the Als1 mutation; assay: Greenhouse postemergence test of ALS-inhibiting herbicides, soybean with Als1 mutation; details: for Avg response (% phytotoxicity), Trait Als1: Table 2
Procedure: as §1, §2, §3, §4, §5, §6

[3] = test system: soybean having both the Als1 and Als2 mutations; assay: Greenhouse postemergence test of ALS-inhibiting herbicides and isobole analysis, soybean with Als1 and Als2 mutations; details: for Avg response (% phytotoxicity), Trait Als1 + Als2: Table 2
Procedure: as §1, §2, §3, §4, §5, §6

[4] = test system: wild type soybean; assay: Greenhouse postemergence test of ALS-inhibiting herbicides, wild type soybean
Procedure: as §1, §2, §3

[5] = 35 g ai/ha postemergence at V2, scored 14 days after application
[6] = 70 g ai/ha postemergence at V2, scored 14 days after application
[7] = 140 g ai/ha postemergence at V2, scored 14 days after application
[8] = 280 g ai/ha postemergence at V2, scored 14 days after application
[9] = 560 g ai/ha postemergence at V2, scored 14 days after application
[10] = 8.75 g ai/ha postemergence at V2, scored 14 days after application
[11] = 17.5 g ai/ha postemergence at V2, scored 14 days after application
[12] = rate of herbicide estimated to cause 10% phytotoxic response, loglogistic fit

For `COc1cc(OC)nc(Sc2cccc(Cl)c2C(=O)O)n1` [Pyrithiobac sodium], the “Soybean response (percent phytotoxicity), Als2” value [1, 5] was 20%, the “Avg response (% phytotoxicity), Trait Als2” value ([1]; 35 g ai/ha) was 40% and the “Soybean response (percent phytotoxicity), Als2” value [1, 6] was 30%. For the same compound, the “Avg response (% phytotoxicity), Trait Als2” value ([1]; 70 g ai/ha) was 60%, the “Soybean response (percent phytotoxicity), Als2” value [1, 7] was 40% and the “Avg response (% phytotoxicity), Trait Als2” value ([1]; 140 g ai/ha) was 80%. For the same compound, the “Soybean response (percent phytotoxicity), Als2” value [1, 8] was 45%, the “Avg response (% phytotoxicity), Trait Als2” value ([1]; 280 g ai/ha) was 92.5% and the “Soybean response (percent phytotoxicity), Als2” value [1, 9] was 49%. For the same compound, the “Avg response (% phytotoxicity), Trait Als2” value ([1]; 560 g ai/ha) was 98%, the “Soybean response (percent phytotoxicity), Als1” value [2, 5] was 20% and the “Avg response (% phytotoxicity), Trait Als1” value ([2]; 35 g ai/ha) was 20%. For the same compound, the “Soybean response (percent phytotoxicity), Als1” value [2, 6] was 50%, the “Avg response (% phytotoxicity), Trait Als1” value ([2]; 70 g ai/ha) was 50% and the “Soybean response (percent phytotoxicity), Als1” value [2, 7] was 70%. The “Avg response (% phytotoxicity), Trait Als1” value ([2]; 140 g ai/ha) was 70%, the “Soybean response (percent phytotoxicity), Als1” value [2, 8] was 98% and the “Avg response (% phytotoxicity), Trait Als1” value ([2]; 280 g ai/ha) was 98%. The “Soybean response (percent phytotoxicity), Als1” value [2, 9] was 97%, the “Avg response (% phytotoxicity), Trait Als1” value ([2]; 560 g ai/ha) was 96.5% and the “Soybean response (percent phytotoxicity), Als1 + Als2” value [3, 5] was 0%. The “Avg response (% phytotoxicity), Trait Als1 + Als2” value ([3]; 35 g ai/ha) was 0%, the “Soybean response (percent phytotoxicity), Als1 + Als2” value [3, 6] was 5% and the “Avg response (% phytotoxicity), Trait Als1 + Als2” value ([3]; 70 g ai/ha) was 5%. The “Soybean response (percent phytotoxicity), Als1 + Als2” value [3, 7] was 25%, the “Avg response (% phytotoxicity), Trait Als1 + Als2” value ([3]; 140 g ai/ha) was 25% and the “Soybean response (percent phytotoxicity), Als1 + Als2” value [3, 8] was 45%. For the same compound, the “Avg response (% phytotoxicity), Trait Als1 + Als2” value ([3]; 280 g ai/ha) was 45%, the “Soybean response (percent phytotoxicity), Als1 + Als2” value [3, 9] was 50% and the “Avg response (% phytotoxicity), Trait Als1 + Als2” value ([3]; 560 g ai/ha) was 50%. The “Soybean response (percent phytotoxicity), Wild type” value [4, 5] was 70%, the “Soybean response (percent phytotoxicity), Wild type” value [4, 6] was 95% and the “Soybean response (percent phytotoxicity), Wild type” value [4, 7] was 98%. The “Soybean response (percent phytotoxicity), Wild type” value [4, 8] was 98% and the “Soybean response (percent phytotoxicity), Wild type” value [4, 9] was 98%.

For `CCS(=O)(=O)c1cccnc1S(=O)(=O)NC(=O)Nc1nc(OC)cc(OC)n1` [Rimsulfuron], the “Soybean response (percent phytotoxicity), Als2” value [1, 10] was 0%, the “Avg response (% phytotoxicity), Trait Als2” value ([1]; 8.75 g ai/ha) was 0% and the “Soybean response (percent phytotoxicity), Als2” value [1, 11] was 0%. For the same compound, the “Avg response (% phytotoxicity), Trait Als2” value ([1]; 17.5 g ai/ha) was 0%, the “Soybean response (percent phytotoxicity), Als2” value [1, 5] was 20% and the “Avg response (% phytotoxicity), Trait Als2” value ([1]; 35 g ai/ha) was 20%. For the same compound, the “Soybean response (percent phytotoxicity), Als2” value [1, 6] was 60%, the “Avg response (% phytotoxicity), Trait Als2” value ([1]; 70 g ai/ha) was 60% and the “Soybean response (percent phytotoxicity), Als2” value [1, 7] was 80%. The “Avg response (% phytotoxicity), Trait Als2” value ([1]; 140 g ai/ha) was 80%, the “EC10, Als2” value [1, 12] was 23.88 g ai/ha and the “phytotoxicity (in words), soybean containing only the Als2 gene” value ([1]; the higher doses) was “substantial phytotoxicity”. The “Soybean response (percent phytotoxicity), Als1” value [2, 10] was 0%, the “Avg response (% phytotoxicity), Trait Als1” value ([2]; 8.75 g ai/ha) was 0% and the “Soybean response (percent phytotoxicity), Als1” value [2, 11] was 0%. The “Avg response (% phytotoxicity), Trait Als1” value ([2]; 17.5 g ai/ha) was 0%, the “Soybean response (percent phytotoxicity), Als1” value [2, 5] was 20% and the “Avg response (% phytotoxicity), Trait Als1” value ([2]; 35 g ai/ha) was 20%. For the same compound, the “Soybean response (percent phytotoxicity), Als1” value [2, 6] was 40%, the “Avg response (% phytotoxicity), Trait Als1” value ([2]; 70 g ai/ha) was 40% and the “Soybean response (percent phytotoxicity), Als1” value [2, 7] was 80%. For the same compound, the “Avg response (% phytotoxicity), Trait Als1” value ([2]; 140 g ai/ha) was 80%, the “EC10, Als1” value [2, 12] was 28.61 g ai/ha and the “phytotoxicity (in words), soybean containing only the Als1 gene” value ([2]; the higher doses) was “substantial phytotoxicity”. The “Soybean response (percent phytotoxicity), Als1 + Als2” value [3, 10] was 0%, the “Avg response (% phytotoxicity), Trait Als1 + Als2” value ([3]; 8.75 g ai/ha) was 0% and the “Soybean response (percent phytotoxicity), Als1 + Als2” value [3, 11] was 0%. For the same compound, the “Avg response (% phytotoxicity), Trait Als1 + Als2” value ([3]; 17.5 g ai/ha) was 0%, the “Soybean response (percent phytotoxicity), Als1 + Als2” value [3, 5] was 0% and the “Avg response (% phytotoxicity), Trait Als1 + Als2” value ([3]; 35 g ai/ha) was 0%. For the same compound, the “Soybean response (percent phytotoxicity), Als1 + Als2” value [3, 6] was 10%, the “Avg response (% phytotoxicity), Trait Als1 + Als2” value ([3]; 70 g ai/ha) was 10% and the “Soybean response (percent phytotoxicity), Als1 + Als2” value [3, 7] was 10%. The “Avg response (% phytotoxicity), Trait Als1 + Als2” value ([3]; 140 g ai/ha) was 10%, the “EC10, Als1 + Als2” value [3, 12] was 123.22 g ai/ha and the “tolerance (in words), soybean containing both the Als1 and the Als2 genes” value ([3]; the higher doses) was “extremely tolerant”. For the same compound, the “Soybean response (percent phytotoxicity), Wild type” value [4, 10] was 10%, the “Soybean response (percent phytotoxicity), Wild type” value [4, 11] was 35% and the “Soybean response (percent phytotoxicity), Wild type” value [4, 5] was 85%. The “Soybean response (percent phytotoxicity), Wild type” value [4, 6] was 95% and the “Soybean response (percent phytotoxicity), Wild type” value [4, 7] was 98%.
